Data as given in patent publication US20170190705A1, “Compositions and Methods for Inhibiting BMP” (THE BRIGHAM AND WOMAN'S HOSPITAL, INC., priority 2014, published 2017).
Like-named read-outs stand apart in the source and are kept apart here.

Assays:
Format in all cases: biochemical
[1] = biological target: T1, CHEK1 (Homo sapiens, UniProt O14757); assay: Kinome profiling CHEK1; conditions: read-out: Inhibitory activity CHEK1; for inhibition at 0.1 µM: 100 nM
T1 sequence (O14757 1-476): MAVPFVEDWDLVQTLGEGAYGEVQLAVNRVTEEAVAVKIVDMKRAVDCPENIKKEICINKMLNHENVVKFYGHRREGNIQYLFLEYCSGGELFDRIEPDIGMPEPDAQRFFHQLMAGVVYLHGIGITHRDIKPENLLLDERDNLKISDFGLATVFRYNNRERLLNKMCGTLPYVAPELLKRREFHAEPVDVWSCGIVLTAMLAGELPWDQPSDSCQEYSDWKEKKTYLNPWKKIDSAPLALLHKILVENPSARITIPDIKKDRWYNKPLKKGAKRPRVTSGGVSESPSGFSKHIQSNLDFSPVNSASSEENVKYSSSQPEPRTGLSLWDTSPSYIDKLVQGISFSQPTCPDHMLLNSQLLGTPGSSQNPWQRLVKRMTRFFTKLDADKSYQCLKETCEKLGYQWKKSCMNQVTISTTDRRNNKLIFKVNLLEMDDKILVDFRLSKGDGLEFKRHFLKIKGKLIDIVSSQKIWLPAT
Procedure: (§1) . The kinome-wide selectivity was determined following the methods previously reported by Mohedas et al., ACS Chem Biol 2013, 8, 1291-1302 and Sanvitale et al., PLoS One 2013, 8, e62721.

[2] = biological target: SRMS (Homo sapiens, UniProt Q9H3Y6); assay: Kinome profiling SRMS; conditions: read-out: Inhibitory activity SRMS; for inhibition at 0.1 µM: 100 nM
SRMS, sequence (Q9H3Y6 whole entry): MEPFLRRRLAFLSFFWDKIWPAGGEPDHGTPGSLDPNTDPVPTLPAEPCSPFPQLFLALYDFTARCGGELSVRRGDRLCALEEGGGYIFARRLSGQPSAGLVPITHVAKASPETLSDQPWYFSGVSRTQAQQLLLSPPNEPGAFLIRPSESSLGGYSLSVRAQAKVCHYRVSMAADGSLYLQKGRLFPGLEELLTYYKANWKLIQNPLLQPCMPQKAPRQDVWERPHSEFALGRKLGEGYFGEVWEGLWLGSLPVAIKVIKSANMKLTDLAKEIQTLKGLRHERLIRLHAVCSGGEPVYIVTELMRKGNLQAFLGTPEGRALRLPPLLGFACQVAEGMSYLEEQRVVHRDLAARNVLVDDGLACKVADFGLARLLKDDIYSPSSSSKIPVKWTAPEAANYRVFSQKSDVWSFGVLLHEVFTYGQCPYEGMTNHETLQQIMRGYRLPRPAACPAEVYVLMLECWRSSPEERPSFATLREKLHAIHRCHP
Procedure: as §1

[3] = biological target: MARK3 (Homo sapiens, UniProt P27448); assay: Kinome profiling MARK3; conditions: read-out: Inhibitory activity MARK3; for inhibition at 0.1 µM: 100 nM
MARK3, sequence (P27448 whole entry): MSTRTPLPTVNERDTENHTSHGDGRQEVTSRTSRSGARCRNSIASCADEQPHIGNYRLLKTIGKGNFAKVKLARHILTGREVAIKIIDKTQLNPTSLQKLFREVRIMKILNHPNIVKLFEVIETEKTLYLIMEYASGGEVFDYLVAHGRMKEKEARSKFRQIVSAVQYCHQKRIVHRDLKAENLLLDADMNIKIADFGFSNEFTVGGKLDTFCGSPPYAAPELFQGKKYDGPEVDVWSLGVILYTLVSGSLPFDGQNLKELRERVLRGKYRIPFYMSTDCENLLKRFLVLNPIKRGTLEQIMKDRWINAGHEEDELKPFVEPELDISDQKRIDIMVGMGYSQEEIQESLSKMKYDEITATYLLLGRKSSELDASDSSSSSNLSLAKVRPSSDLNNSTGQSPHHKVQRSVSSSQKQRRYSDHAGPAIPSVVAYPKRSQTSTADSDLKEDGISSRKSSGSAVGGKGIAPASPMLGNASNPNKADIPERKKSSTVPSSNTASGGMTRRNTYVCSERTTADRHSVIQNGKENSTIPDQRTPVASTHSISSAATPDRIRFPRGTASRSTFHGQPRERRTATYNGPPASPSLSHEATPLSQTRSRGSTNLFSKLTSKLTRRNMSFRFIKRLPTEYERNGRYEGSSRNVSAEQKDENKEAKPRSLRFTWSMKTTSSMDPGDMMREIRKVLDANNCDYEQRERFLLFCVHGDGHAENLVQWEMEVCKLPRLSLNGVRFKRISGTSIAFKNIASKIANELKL
Procedure: as §1

[4] = biological target: T2, BMX (Homo sapiens, UniProt P51813); assay: Kinome profiling BMX; conditions: read-out: Inhibitory activity BMX; for inhibition at 0.1 µM: 100 nM
T2 sequence (P51813 1-675): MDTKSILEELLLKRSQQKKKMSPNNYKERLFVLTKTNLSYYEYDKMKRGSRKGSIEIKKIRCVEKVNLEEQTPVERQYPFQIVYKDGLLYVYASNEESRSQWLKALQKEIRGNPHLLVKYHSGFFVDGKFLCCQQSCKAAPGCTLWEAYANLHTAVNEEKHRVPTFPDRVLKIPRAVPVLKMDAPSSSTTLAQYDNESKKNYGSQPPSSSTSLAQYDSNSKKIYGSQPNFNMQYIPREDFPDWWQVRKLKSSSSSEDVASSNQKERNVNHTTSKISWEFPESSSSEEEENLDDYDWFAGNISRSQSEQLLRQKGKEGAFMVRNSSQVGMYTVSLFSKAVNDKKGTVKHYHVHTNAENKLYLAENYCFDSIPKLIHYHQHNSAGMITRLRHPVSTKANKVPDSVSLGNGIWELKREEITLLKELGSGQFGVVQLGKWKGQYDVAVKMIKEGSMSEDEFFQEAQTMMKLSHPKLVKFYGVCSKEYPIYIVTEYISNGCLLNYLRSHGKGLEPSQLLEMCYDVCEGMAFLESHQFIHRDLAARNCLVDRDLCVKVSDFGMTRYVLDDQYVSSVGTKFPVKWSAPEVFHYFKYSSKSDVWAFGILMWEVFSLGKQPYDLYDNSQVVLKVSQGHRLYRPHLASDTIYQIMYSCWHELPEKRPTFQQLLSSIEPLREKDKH
Procedure: as §1

[5] = biological target: NEK7 (Homo sapiens, UniProt Q8TDX7); assay: Kinome profiling NEK7; conditions: read-out: Inhibitory activity NEK7; for inhibition at 0.1 µM: 100 nM
NEK7, sequence (Q8TDX7 whole entry): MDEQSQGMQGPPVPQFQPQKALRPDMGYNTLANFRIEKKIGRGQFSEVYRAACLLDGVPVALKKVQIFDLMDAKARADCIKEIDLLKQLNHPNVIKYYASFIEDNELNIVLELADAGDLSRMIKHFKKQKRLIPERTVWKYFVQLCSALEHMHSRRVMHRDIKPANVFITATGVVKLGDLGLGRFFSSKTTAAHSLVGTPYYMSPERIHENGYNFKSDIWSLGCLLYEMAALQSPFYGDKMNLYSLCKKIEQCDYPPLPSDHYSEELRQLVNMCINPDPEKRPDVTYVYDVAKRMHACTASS
Procedure: as §1

[6] = biological target: T3, ITK (Homo sapiens, UniProt Q08881); assay: Kinome profiling ITK; conditions: read-out: Inhibitory activity ITK; for inhibition at 0.1 µM: 100 nM
T3 sequence (Q08881 1-620): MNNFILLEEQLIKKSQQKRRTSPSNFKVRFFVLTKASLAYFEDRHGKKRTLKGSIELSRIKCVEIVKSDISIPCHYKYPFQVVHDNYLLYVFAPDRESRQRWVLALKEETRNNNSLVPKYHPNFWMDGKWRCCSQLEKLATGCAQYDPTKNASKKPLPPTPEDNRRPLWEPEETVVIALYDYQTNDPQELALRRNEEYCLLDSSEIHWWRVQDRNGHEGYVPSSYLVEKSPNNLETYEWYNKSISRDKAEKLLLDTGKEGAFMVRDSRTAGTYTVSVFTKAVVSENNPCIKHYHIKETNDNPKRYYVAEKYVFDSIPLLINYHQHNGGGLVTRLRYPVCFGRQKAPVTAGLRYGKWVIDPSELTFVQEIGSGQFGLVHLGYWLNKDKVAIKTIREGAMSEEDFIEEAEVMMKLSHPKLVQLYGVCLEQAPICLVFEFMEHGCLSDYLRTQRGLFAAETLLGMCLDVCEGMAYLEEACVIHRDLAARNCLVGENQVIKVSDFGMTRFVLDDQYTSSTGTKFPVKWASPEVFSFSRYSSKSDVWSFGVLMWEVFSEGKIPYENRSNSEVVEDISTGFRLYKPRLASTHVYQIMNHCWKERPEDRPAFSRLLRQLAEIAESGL
Procedure: as §1

[7] = biological target: ERBB4 (Homo sapiens, UniProt Q15303); assay: Kinome profiling ERBB4; conditions: read-out: Inhibitory activity ERBB4; for inhibition at 0.1 µM: 100 nM
ERBB4, sequence (Q15303 26-1308): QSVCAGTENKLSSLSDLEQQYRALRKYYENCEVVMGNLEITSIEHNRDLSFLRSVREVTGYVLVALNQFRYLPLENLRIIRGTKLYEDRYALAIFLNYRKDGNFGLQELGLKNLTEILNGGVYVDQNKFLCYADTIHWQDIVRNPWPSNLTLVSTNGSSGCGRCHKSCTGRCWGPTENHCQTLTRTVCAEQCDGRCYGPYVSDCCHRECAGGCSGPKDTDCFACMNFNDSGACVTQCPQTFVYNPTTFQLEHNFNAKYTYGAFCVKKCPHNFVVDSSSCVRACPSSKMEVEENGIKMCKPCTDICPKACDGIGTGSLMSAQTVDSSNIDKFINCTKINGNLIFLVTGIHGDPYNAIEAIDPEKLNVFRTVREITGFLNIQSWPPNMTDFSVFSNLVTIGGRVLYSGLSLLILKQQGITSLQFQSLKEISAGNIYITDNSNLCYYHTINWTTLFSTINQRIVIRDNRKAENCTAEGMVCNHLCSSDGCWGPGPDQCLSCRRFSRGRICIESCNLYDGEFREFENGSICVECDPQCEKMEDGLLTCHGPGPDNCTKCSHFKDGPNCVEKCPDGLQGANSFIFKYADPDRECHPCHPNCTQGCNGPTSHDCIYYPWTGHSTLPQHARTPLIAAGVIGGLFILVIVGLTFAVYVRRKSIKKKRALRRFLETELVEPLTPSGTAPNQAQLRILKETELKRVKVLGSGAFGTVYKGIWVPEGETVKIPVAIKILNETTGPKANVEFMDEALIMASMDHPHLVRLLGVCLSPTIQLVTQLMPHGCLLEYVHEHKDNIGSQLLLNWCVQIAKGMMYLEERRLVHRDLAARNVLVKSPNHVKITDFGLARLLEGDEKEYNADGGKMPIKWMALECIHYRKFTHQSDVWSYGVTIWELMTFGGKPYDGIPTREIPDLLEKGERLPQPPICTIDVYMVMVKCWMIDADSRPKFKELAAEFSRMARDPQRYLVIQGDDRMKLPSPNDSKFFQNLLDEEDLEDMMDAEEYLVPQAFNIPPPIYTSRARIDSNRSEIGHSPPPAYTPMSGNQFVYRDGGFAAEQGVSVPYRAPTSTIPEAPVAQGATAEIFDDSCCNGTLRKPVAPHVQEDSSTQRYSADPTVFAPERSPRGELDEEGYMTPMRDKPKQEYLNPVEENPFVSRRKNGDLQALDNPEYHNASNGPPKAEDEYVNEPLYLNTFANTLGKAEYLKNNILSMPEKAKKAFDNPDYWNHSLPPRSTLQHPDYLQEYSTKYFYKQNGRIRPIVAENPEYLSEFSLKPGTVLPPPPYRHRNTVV
Procedure: as §1

[8] = biological target: ARG (ABL2) (Homo sapiens, UniProt P42684); assay: Kinome profiling ARG (ABL2); conditions: for inhibition at 0.1 µM: 100 nM
ARG (ABL2), sequence (P42684 whole entry): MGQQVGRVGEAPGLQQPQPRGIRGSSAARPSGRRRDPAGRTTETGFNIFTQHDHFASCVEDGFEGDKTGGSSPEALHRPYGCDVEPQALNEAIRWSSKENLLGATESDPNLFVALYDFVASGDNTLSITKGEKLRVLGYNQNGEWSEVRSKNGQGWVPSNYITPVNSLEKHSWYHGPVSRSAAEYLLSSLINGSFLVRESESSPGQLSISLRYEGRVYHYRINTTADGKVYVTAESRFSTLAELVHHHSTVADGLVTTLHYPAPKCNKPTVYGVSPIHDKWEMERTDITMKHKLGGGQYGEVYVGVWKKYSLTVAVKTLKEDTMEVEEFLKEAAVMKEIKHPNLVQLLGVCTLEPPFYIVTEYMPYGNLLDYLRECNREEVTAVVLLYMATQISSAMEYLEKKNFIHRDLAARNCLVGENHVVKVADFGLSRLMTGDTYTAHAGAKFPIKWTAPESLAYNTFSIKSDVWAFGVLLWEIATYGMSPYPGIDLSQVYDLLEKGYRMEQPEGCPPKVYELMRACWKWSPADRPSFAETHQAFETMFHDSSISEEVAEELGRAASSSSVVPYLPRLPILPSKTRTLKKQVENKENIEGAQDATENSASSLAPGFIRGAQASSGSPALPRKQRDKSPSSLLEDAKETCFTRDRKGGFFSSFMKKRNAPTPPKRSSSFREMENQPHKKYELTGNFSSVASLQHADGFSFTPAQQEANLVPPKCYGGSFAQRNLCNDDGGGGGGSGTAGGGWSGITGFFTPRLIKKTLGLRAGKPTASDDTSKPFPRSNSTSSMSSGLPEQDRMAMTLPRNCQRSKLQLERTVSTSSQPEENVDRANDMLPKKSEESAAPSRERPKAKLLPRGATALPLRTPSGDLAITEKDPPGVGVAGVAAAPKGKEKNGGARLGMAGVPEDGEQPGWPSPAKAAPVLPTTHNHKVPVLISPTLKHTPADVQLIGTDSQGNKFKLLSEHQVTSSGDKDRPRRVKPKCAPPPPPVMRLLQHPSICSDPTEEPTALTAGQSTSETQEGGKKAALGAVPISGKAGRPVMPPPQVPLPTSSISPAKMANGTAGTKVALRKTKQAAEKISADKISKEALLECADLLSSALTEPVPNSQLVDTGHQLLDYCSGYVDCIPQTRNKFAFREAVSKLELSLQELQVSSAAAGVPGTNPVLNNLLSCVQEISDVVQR
Procedure: as §1

[9] = biological target: PAK2 (Homo sapiens, UniProt Q13177); assay: Kinome profiling PAK2; conditions: read-out: Inhibitory activity PAK2; for inhibition at 0.1 µM: 100 nM
Procedure: as §1

[10] = biological target: AKT2 (Homo sapiens, UniProt P31751); assay: Kinome profiling AKT2; conditions: read-out: Inhibitory activity AKT2; for inhibition at 0.1 µM: 100 nM
AKT2, sequence (P31751 whole entry): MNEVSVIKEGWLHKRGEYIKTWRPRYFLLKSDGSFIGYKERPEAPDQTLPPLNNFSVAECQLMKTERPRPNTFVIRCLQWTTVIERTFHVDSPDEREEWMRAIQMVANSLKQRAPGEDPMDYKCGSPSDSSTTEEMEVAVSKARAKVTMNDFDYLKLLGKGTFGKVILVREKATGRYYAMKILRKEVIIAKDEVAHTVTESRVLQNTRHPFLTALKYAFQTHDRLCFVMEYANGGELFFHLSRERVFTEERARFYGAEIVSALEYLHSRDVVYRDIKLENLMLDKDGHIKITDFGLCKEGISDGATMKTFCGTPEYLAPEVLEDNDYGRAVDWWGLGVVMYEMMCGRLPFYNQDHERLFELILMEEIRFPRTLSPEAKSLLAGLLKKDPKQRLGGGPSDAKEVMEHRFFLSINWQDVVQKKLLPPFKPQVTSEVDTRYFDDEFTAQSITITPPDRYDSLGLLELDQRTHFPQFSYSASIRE
Procedure: as §1

[11] = biological target: P70S6KB1 (Homo sapiens, UniProt P23443); assay: Kinome profiling P70S6KB1; conditions: read-out: Inhibitory activity P70S6KB1; for inhibition at 0.1 µM: 100 nM
P70S6KB1, sequence (P23443 whole entry): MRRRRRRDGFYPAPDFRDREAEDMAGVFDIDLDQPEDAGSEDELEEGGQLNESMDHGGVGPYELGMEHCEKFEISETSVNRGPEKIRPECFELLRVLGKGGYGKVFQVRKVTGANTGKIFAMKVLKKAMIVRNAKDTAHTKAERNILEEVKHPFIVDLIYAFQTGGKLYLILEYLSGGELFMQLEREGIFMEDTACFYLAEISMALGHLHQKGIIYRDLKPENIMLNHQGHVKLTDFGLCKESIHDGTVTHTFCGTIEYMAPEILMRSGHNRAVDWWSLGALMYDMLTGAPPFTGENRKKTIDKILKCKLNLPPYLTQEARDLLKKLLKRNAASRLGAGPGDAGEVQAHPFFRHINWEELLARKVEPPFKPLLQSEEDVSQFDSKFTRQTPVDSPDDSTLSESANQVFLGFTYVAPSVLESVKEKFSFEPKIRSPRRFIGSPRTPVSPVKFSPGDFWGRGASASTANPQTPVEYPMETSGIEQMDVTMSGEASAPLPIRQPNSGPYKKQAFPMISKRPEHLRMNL
Procedure: as §1

[12] = biological target: LOK (Homo sapiens, UniProt O94804); assay: Kinome profiling LOK; conditions: read-out: Inhibitory activity LOK; for inhibition at 0.1 µM: 100 nM
Procedure: as §1

[13] = Table 4, read-out: Inhibitory Activity ARG
[14] = read-out: Inhibitory activity ARG (ABL2)

Row | Structure (SMILES) | inhibition at 0.1 µM [1] [%] | inhibition at 1 µM [1] [%] | inhibition at 0.1 µM [2] [%] | inhibition at 1 µM [2] [%] | inhibition at 0.1 µM [3] [%] | inhibition at 1 µM [3] [%] | inhibition at 0.1 µM [4] [%] | inhibition at 1 µM [4] [%] | inhibition at 0.1 µM [5] [%] | inhibition at 1 µM [5] [%] | inhibition at 0.1 µM [6] [%] | inhibition at 1 µM [6] [%] | inhibition at 0.1 µM [7] [%] | inhibition at 1 µM [7] [%] | inhibition at 0.1 µM [8, 14] [%] | inhibition at 1 µM [8, 14] [%] | inhibition at 0.1 µM [9] [%] | inhibition at 1 µM [9] [%] | inhibition at 0.1 µM [10] [%] | inhibition at 1 µM [10] [%] | other results
1 | COc1cc(-c2cc(-c3ccc(N4CCNCC4)cc3)cnc2C)cc(OC)c1OC [Compound 10, 1-(4-(6-methyl-5-(3,4,5-trimethoxyphenyl)pyridin-3-yl)phenyl)piperazine] | 4 | -3 | 0 | 1 | 0 | 3 | 7 | 11 | 4 | 3 | 0 | -1 | 4 | 21 | 17 | 62 | 0 | 1 | -1 | -1 | inhibition at 0.1 µM [8, 13]: 17%; inhibition at 1 µM [8, 13]: 62%; inhibition at 0.1 µM [11]: 1%; inhibition at 1 µM [11]: 1%; inhibition at 0.1 µM [12]: 9%; inhibition at 1 µM [12]: 47%
2 | COc1cc(-c2cc(-c3ccc(N4CCNCC4)cc3)cnc2N)cc(OC)c1OC [Compound 15, 5-(4-(piperazin-1-yl)phenyl)-3-(3,4,5-trimethoxyphenyl)pyridin-2-amine] | 2 | 6 | 11 | 33 | 4 | 48 | 5 | 30 | 9 | 2 | 0 | 2 | 9 | 29 | 60 | 81 | 0 | 1 | 2 | 2 | inhibition at 0.1 µM [11]: 0%; inhibition at 1 µM [11]: 0%; inhibition at 0.1 µM [12]: 32%; inhibition at 1 µM [12]: 73%
